Measured values taken from US20080021030A1, “Substituted Pyrazoles As Ppar Agonists” (priority 2003, published 2008).

Legend:
hPPAR alpha = biological target: T1, hPPAR alpha (Homo sapiens, UniProt Q07869); experiment: Transient transfection (transactivation) assay in CV-1 cells, GAL4-PPAR LBD chimera, SPAP reporter; format: cell-based; details: read-out: EC50 μM HPPARα
T1 construct: expressed in transfected cells; host or cells: CV-1 cells
T1 sequence (Q07869 239-466 limits assumed): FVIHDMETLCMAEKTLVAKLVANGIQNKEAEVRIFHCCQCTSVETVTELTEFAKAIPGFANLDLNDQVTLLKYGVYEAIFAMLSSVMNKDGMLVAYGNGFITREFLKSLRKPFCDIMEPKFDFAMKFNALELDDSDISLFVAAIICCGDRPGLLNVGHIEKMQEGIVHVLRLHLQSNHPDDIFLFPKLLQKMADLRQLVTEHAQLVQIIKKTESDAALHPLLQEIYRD
How it was run: (§1)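 CV-1 cells transiently co-transfected with GAL4 DBD–human PPAR LBD chimera plus 5×GAL4-site SPAP reporter and β-galactosidase; after 16 h, compound added in DME with 10% delipidated FCS for 24 h. SPAP activity normalised to β-galactosidase; values in μM.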

hPPAR delta = biological target: T2, hPPAR delta (Homo sapiens, UniProt Q03181); experiment: as above; format: cell-based; details: read-out: EC50 μM HPPARδ
T2 construct: expressed in transfected cells; host or cells: CV-1 cells
T2 sequence (Q03181 211-439 limits assumed): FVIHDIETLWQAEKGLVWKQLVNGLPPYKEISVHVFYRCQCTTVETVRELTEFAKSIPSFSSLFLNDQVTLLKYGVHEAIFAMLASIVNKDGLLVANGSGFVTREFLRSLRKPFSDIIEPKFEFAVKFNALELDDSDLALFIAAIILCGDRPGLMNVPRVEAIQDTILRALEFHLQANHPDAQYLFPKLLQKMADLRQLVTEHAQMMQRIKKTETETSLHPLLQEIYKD
How it was run: as §1

hPPAR gamma = biological target: T3, hPPAR gamma (Homo sapiens, UniProt P37231); experiment: as above; format: cell-based; details: read-out: EC50 μM HPPARγ
T3 construct: expressed in transfected cells; host or cells: CV-1 cells
T3 sequence (P37231 238-503 limits assumed): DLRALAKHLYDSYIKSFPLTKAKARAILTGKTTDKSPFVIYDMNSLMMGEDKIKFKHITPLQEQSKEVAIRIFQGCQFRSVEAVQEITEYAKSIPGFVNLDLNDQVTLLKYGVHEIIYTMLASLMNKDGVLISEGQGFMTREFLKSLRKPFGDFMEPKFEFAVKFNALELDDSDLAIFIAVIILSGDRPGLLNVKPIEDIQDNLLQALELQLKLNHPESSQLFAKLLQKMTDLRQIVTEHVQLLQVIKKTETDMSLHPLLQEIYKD
How it was run: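 CV-1 cells were transiently transfected with a GAL4 DBD–human PPARγ LBD chimera, a 5×GAL4-site SPAP reporter and β-galactosidase. After 16 h, the cells were exposed to compound in DME with 10% delipidated FCS for 24 h. Alkaline phosphatase and β-galactosidase activities were then measured in cell extracts.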

melting point [°C] | EC50 (hPPAR alpha) [µM] | EC50 (hPPAR delta) [µM] | EC50 (hPPAR gamma) [µM] | Structure (SMILES)
70 | 0.894 | > 25 | 0.287 | C=CCOc1ccc(-c2cc(C(=O)NCc3ccc(OC(C)(C)C(=O)O)c(C)c3)n(C)n2)cc1 [Example 56, 2-methyl-2-[(2-methyl-4-{[({1-methyl-3-[4-(2-propen-1-yloxy)phenyl]-1H-pyrazol-5-yl}carbonyl)amino]methyl}phenyl)oxy]propanoic acid]
72 | 0.657 | > 8 | 0.118 | Cc1cc(CNC(=O)c2cc(-c3ccc(OCc4ccccc4)cc3)nn2C)ccc1OC(C)(C)C(=O)O [Example 57, 2-methyl-2-{[2-methyl-4-({[(1-methyl-3-{4-[(phenylmethyl)oxy]phenyl}-1H-pyrazol-5-yl)carbonyl]amino}methyl)phenyl]oxy}propanoic acid]
